Laboratory results reported in PubChem BioAssay (NCI).
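Step 1: Grow cells in 96-well plates. Step 2: Expose to compound for 48 hours at 5 concentrations. Step 3: Interpolate endpoints linearly; if unreached, use highest concentration. GI50 is the concentration that inhibits growth by half. At the TGI there is no net growth.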

Key:
Assay in all cases: DTP human tumour cell line panel, 48 h
[1] = system: MALME-3M melanoma
[2] = system: HOP-92 NSCLC
[3] = system: SK-OV-3 ovarian
[4] = system: A549 NSCLC
[5] = system: SNB-75 CNS
[6] = system: COLO 205 colon
[7] = system: OVCAR-5 ovarian
[8] = system: 786-0 renal
[9] = system: RPMI-8226 leukemia
[10] = system: UACC-257 melanoma
[11] = system: SW-620 colon
[12] = system: DU-145 prostate
[13] = system: M14 melanoma
[14] = system: HS 578T breast
[15] = system: CAKI-1 renal
[16] = system: TK-10 renal
[17] = system: OVCAR-8 ovarian
[18] = system: NCI-H226 lung
[19] = system: MDA-MB-435
[20] = system: NCI-H460 lung
[21] = system: HCC-2998 colon
[22] = system: UACC-62 melanoma
[23] = system: CCRF-CEM leukemia
[24] = system: HL-60(TB) leukemia
[25] = system: HCT-15 colon
[26] = system: SK-MEL-2 melanoma
[27] = system: MCF7 breast
[28] = system: HT29 colon
[29] = system: MDA-MB-231 breast

CCN(CC)CCOc1ccc(Nc2ncc3cc(-c4ccc(O)c(C#N)c4)c(=O)n(C)c3n2)cc1
GI50 [1]: 15.1 µM
TGI [1]: 28.5 µM
GI50 [2]: 4.46 µM
TGI [2]: 22.8 µM
GI50 [3]: > 100 µM
TGI [3]: > 100 µM
GI50 [4]: > 100 µM
TGI [4]: > 100 µM
GI50 [5]: 2.55 µM
TGI [5]: > 100 µM
GI50 [6]: 25 µM
TGI [6]: > 100 µM
GI50 [7]: > 100 µM
TGI [7]: > 100 µM
GI50 [8]: 15 µM
TGI [8]: 29 µM
GI50 [9]: 26.7 µM
TGI [9]: > 100 µM
GI50 [10]: 18.8 µM
TGI [10]: 37.9 µM
GI50 [11]: 55.4 µM
TGI [11]: > 100 µM
GI50 [12]: > 100 µM
TGI [12]: > 100 µM
GI50 [13]: 13.4 µM
TGI [13]: 27.1 µM
GI50 [14]: 6.77 µM
TGI [14]: 30.8 µM
GI50 [15]: 48 µM
TGI [15]: > 100 µM
GI50 [16]: > 100 µM
TGI [16]: > 100 µM
GI50 [17]: > 100 µM
TGI [17]: > 100 µM
GI50 [18]: 13 µM
TGI [18]: 53.4 µM
GI50 [19]: 18.4 µM
TGI [19]: 36.5 µM
GI50 [20]: 37.5 µM
TGI [20]: > 100 µM
GI50 [21]: > 100 µM
TGI [21]: > 100 µM
GI50 [22]: 15.4 µM
TGI [22]: 29.3 µM
GI50 [23]: 16.1 µM
TGI [23]: 53.5 µM
GI50 [24]: > 100 µM
TGI [24]: > 100 µM
GI50 [25]: > 100 µM
TGI [25]: > 100 µM
GI50 [26]: 15.7 µM
TGI [26]: 31.9 µM
GI50 [27]: 15.3 µM
TGI [27]: 32.9 µM
GI50 [28]: 9.92 µM
TGI [28]: 41.3 µM
GI50 [29]: 19.3 µM
TGI [29]: > 100 µM
